Consider two compounds from ChEMBL document CHEMBL5584328, “Integrating computational and experimental chemical biology revealed variable anticancer activities of phosphodiesterase isoenzyme 5 inhibitors (PDE5i) in lung cancer” (RSC Med Chem, 2024).

Test [1] has as its system A549. The test can be described thus: Antiproliferative activity against human A549 cells measured after 48 hrs by MTT assay. The format is functional, cell-based. The conditions noted are these: for IC50: A549, 48 h.
Test [2] deals with NCI-H1299. The experiment in a line: Antiproliferative activity against human NCI-H1299 cells measured after 48 hrs by MTT assay. In kind it is functional, cell-based. The conditions noted are these: for IC50: NCI-H1299, 48 h. In general terms: Tetrazolium dyes change colour on reduction, which living cells bring about.
Test [3] has as its system NCI-H661. The test can be described thus: Antiproliferative activity against human NCI-H661 cells measured after 48 hrs by MTT assay. In kind it is functional, cell-based. Particulars: for IC50: NCI-H661, 48 h.
Test [4] deals with A549. The test can be described thus: Antiproliferative activity against human A549 cells measured after 24 hrs by MTT assay. In kind it is functional, cell-based.
Test [5] relates to A549. The experiment in a line: Antiproliferative activity against human A549 cells measured after 72 hrs by MTT assay. The format is functional, cell-based.
Test [6] has as its system NCI-H1299. The experiment in a line: Antiproliferative activity against human NCI-H1299 cells measured after 24 hrs by MTT assay. In kind it is functional, cell-based.
Test [7] concerns NCI-H1299. The test can be described thus: Antiproliferative activity against human NCI-H1299 cells measured after 72 hrs by MTT assay. The format is functional, cell-based.
Test [8] deals with NCI-H661. The test can be described thus: Antiproliferative activity against human NCI-H661 cells measured after 24 hrs by MTT assay. In kind it is functional, cell-based.
Test [9] deals with NCI-H661. The test can be described thus: Antiproliferative activity against human NCI-H661 cells measured after 72 hrs by MTT assay. In kind it is functional, cell-based.
Test [10] concerns A549. The experiment in a line: Antiproliferative activity against human A549 cells by MTT assay. In kind it is functional, cell-based. The conditions noted are these: time 24-72 hrs, TDE = time-dependent effect.
Test [11] deals with NCI-H1299. The test can be described thus: Antiproliferative activity against human NCI-H1299 cells by MTT assay. Particulars: time 24-72 hrs, TDE = time-dependent effect. In kind it is functional, cell-based.
Test [12] has as its system NCI-H661. The test can be described thus: Antiproliferative activity against human NCI-H661 cells by MTT assay. The format is functional, cell-based. Particulars: time 24-72 hrs, TDE = time-dependent effect.
Test [13] deals with A549. The experiment in a line: Potentiation of cisplatin-induced cytotoxicity against human A549 cells assessed as combination index at 1:4 ratio of cisplatin to compound measured after 48 hrs by MTT assay. In kind it is functional.
The subject of test [14] is NCI-H1299. The test can be described thus: Potentiation of cisplatin-induced cytotoxicity against human NCI-H1299 cells assessed as combination index at 1:35 ratio of cisplatin to compound measured after 48 hrs by MTT assay. The format is functional.
Test [15] deals with NCI-H661. The experiment in a line: Potentiation of cisplatin-induced cytotoxicity against human NCI-H661 cells assessed as combination index at 1:14 ratio of cisplatin to compound measured after 48 hrs by MTT assay. The format is functional.
For test [16], the system named is A549. The test can be described thus: Potentiation of cisplatin-induced cytotoxicity against human A549 cells assessed as fold reduction in cisplatin IC50 at 1:4 ratio of cisplatin to compound measured after 48 hrs by MTT assay relative to cisplatin alone. The format is functional.
Test [17] deals with NCI-H1299. The experiment in a line: Potentiation of cisplatin-induced cytotoxicity against human NCI-H1299 cells assessed as fold reduction in cisplatin IC50 at 1:35 ratio of cisplatin to compound measured after 48 hrs by MTT assay relative to cisplatin alone. The format is functional.
The test system of test [18] is NCI-H661. The test can be described thus: Potentiation of cisplatin-induced cytotoxicity against human NCI-H661 cells assessed as fold reduction in cisplatin IC50 at 1:14 ratio of cisplatin to compound measured after 48 hrs by MTT assay relative to cisplatin alone. The format is functional.
Test [19] deals with A549. The test can be described thus: Potentiation of raloxifene-induced cytotoxicity against human A549 cells assessed as combination index at 1:2 ratio of raloxifene to compound measured after 48 hrs by MTT assay. In kind it is functional.
Test [20] has as its system NCI-H1299. The test can be described thus: Potentiation of raloxifene-induced cytotoxicity against human NCI-H1299 cells assessed as combination index at 1:20 ratio of raloxifene to compound measured after 48 hrs by MTT assay. The format is functional.
Test [21] deals with NCI-H661. The test can be described thus: Potentiation of raloxifene-induced cytotoxicity against human NCI-H661 cells assessed as combination index at 1:7 ratio of raloxifene to compound measured after 48 hrs by MTT assay. The format is functional.
Test [22] concerns A549. The experiment in a line: Potentiation of raloxifene-induced cytotoxicity against human A549 cells assessed as fold reduction in raloxifene IC50 at 1:2 ratio of raloxifene to compound measured after 48 hrs by MTT assay relative to raloxifene alone. The format is functional.
Test [23] relates to NCI-H1299. The experiment in a line: Potentiation of raloxifene-induced cytotoxicity against human NCI-H1299 cells assessed as fold reduction in raloxifene IC50 at 1:20 ratio of raloxifene to compound measured after 48 hrs by MTT assay relative to raloxifene alone. The format is functional.
In test [24] the test system is NCI-H661. The test can be described thus: Potentiation of raloxifene-induced cytotoxicity against human NCI-H661 cells assessed as fold reduction in raloxifene IC50 at 1:7 ratio of raloxifene to compound measured after 48 hrs by MTT assay relative to raloxifene alone. In kind it is functional.
The test system of test [25] is NCI-H1299. The experiment in a line: Antimigratory activity against human NCI-H1299 cells assessed as reduction in wound closure measured after 24 hrs by wound healing assay. The format is functional, cell-based.
For test [26], the system named is A549. The experiment in a line: Inhibition of colony formation in human A549 cells assessed as reduction in number of colonies at 52.5 to 105 uM measured after 48 hrs by colony formation assay. In kind it is functional, cell-based. Particulars: dose 52.5-105 µM.
In test [27] the test system is A549. The experiment in a line: Inhibition of colony formation in human A549 cells assessed as reduction in size of colonies at 52.5 to 105 uM measured after 48 hrs by colony formation assay. The conditions noted are these: dose 52.5-105 µM. In kind it is functional, cell-based.
Test [28] relates to A549. The test can be described thus: Induction of apoptosis in human A549 cells assessed as increase in apoptotic cells at 210 uM measured after 48 hrs by Annexin V-FITC/PI staining based flow cytometry relative to control. In kind it is functional.
Test [29] relates to A549. The experiment in a line: Cell cycle arrest in human A549 cells assessed as increase in cell population at G2 phase at 52.5 uM measured after 48 hrs by propidium iodide staining based flow cytometry. The format is functional. For orientation: A flow cytometer gives signals particle by particle.
Test [30] relates to A549. The experiment in a line: Reduction in PDE5 gene expression in human A549 cells at 0.1 IC50 measured after 48 hrs by qRT-PCR analysis. In kind it is functional, cell-based.
Test [31] deals with A549. The experiment in a line: Reduction in Bcl-2 gene expression in human A549 cells at 0.1 IC50 measured after 48 hrs by qRT-PCR analysis. In kind it is functional, cell-based. A general note: Real-time PCR tracks product formation cycle by cycle.
Test [32] deals with A549. The experiment in a line: Reduction in PDE5 protein expression in human A549 cells at 0.25 to 0.5 IC50 measured after 48 hrs by Western blot analysis. In kind it is functional, cell-based.

By IC50 is commonly meant the concentration that gives 50% inhibition.

Activity calls are given as the source filed them. The rule behind the calls is not given here.

On to `CCCc1nn(C)c2c(=O)[nH]c(-c3cc(S(=O)(=O)N4CCN(C)CC4)ccc3OCC)nc12` [SILDENAFIL], for which the IC50 in the test with A549 [1], in the test with NCI-H1299 [2] and in the test with NCI-H661 [3] was more than 500 µM throughout.
Take `CN1CC(=O)N2[C@H](c3ccc4c(c3)OCO4)c3[nH]c4ccccc4c3C[C@@H]2C1=O` [TADALAFIL]: the Activity entry with A549 [4], in the test with A549 [1], in the test with A549 [5], in the test with NCI-H1299 [6], in the test on NCI-H1299 [2] and with NCI-H1299 [7] was “Dose-Dependent Effect” in each case. Besides, the Activity entry is “Dose-Dependent Effect” in the test on NCI-H661 [8]; “Dose-Dependent Effect” with NCI-H661 [3]; “Dose-Dependent Effect” with NCI-H661 [9]; “Tde” in the test with A549 [10]; “Tde” with NCI-H1299 [11]; “Tde” in the test with NCI-H661 [12]. In addition, the Activity entry in the test on NCI-H1299 [25] is “Dose-Dependent Effect”; in the test with A549 [28] it was 22.2%; in the test on A549 [32], “Dose-Dependent Effect”. Also, the IC50 in the test with A549 [4] (A549, 24 h) amounted to 354 µM; in the test on A549 [1], 106 µM; with A549 [5] (A549, 72 h), 73.9 µM; in the test with NCI-H1299 [6] (NCI-H1299, 24 h), 359 µM; with NCI-H1299 [2] it was 274 µM; in the test with NCI-H1299 [7] (NCI-H1299, 72 h) it was 127 µM. Moreover, the IC50 was 876 µM in the test on NCI-H661 [8] (NCI-H661, 24 h); 281 µM in the test with NCI-H661 [3]; 243 µM in the test with NCI-H661 [9] (NCI-H661, 72 h). Besides, the CI was found to be 0.92 in the test with A549 [13]; 0.78 in the test on NCI-H1299 [14]; 0.89 in the test on NCI-H661 [15]; 0.98 in the test with A549 [19]; 0.44 with NCI-H1299 [20]; 0.89 in the test on NCI-H661 [21]. Further, the “fold change (FC)” value in the test on A549 [16] turned out to be 2.1; in the test with NCI-H1299 [17] it was 2.6; with NCI-H661 [18], 2; in the test with A549 [22], 1.9; with NCI-H1299 [23] it was 5.2; in the test with NCI-H661 [24], 2.1. Moreover, the inhibition result with A549 [26] and in the test with A549 [27] was “Active” in each case. In addition, the outcome with A549 [29], in the test on A549 [30] and with A549 [31] was Active.
